Source: patent US6387882B1, “Vitamin E derivatives” (Senju Pharmaceutical Co., Ltd., priority 1997, dated 2002)

Legend:
rat brain homogenate = assay: Formation of lipid peroxide through the autoxidation of rat brain homogenate (TBA method); format: biochemical; conditions: for Amount of MDA: 37° C. 30 min, mean ± standard deviation (n = 3); for Rate of Suppression: suppression of lipid peroxide formation
Experimental: The present compound was examined for the effect on the formation of lipid peroxide through the autoxidation of a rat brain homogenate.
Wistars rat (purchased from SLC Japan (Kabushiki Kaisha)) were decapitated without anesthesia and the skull was immediately opened and the brain removed. The brain taken out was washed with ice-cooled, phoshate buffered saline (PBS (50 mM, pH 7.4)), lightly blotted with filter paper and weighed. Four times ice-cooled PBS was added to the brain and homogenized in ice. The homogenate was centrifuged at 1000×g (2700 rpm) for 10 min at 0° C. The supernate thus obtained was used for the test. To 100 μl of the test compound were added 700 μl of PBS and 200 μl of the supernate of the brain homogenate, and incubated at 37° C. for 30 min. A control group and a blank group were incubated with PBS, with the blank group at 0° C. for 30 min. Then, 200 μl of 35% perchloric acid was added to cease the reaction and the mixture was centrifuged at 1300×g (3200 rpm) for 10 min at 0° C. Using the supernate as a sample, the amount of malondialdehyde (MDA) formed was determined by thiobarbituric acid colorimetric method (TBA method).
To 0.11 g (0.5 mmol) of 1,1,3,3-tetraethoxypropane was added methanol to make 50 ml of volume. This solution was diluted 10^3, 3×10^3 and 10^4-folds with methanol and used as the standards (10 μM, 3 μM, 1 μM). Methanol was assigned to 0 μM.
To 1 ml of each of the samples or the standards were added 0.2 ml of 8.1% sodium dodecylsulfate (SDS), 1.5 ml of 20% acetate buffer (pH 3.5) and 0.8% thbiobarbituric acid (TBA) and incubated in a boiling water bath for 60 min. After ice-cooling to cease the reaction, 4 ml of butanol-pyridine (15:1) was added and mixed well. After centrifugation at 1200×g (3000 rpm) for 10 min, the fluorescence intensity of the butanol-pyridine layer was measured at the wavelength of 553 nm with the excitation wavelength of 515 nm.
The rate of suppression of lipid peroxide formation was calculated according to the following equation for each test compound.
Rate of suppression of lipid peroxide formation (%)=[1-(C-A/B-A)]×100
A: Amount (μM) of formed MDA for the blank group
B: Amount (μM) of formed MDA for the control group
C: Amount (μM) of formed MDA for a test compound group

[1] = system: buthionine sulfoximine (BSO)-induced cataract; assay: Effect on BSO-induced cataract in rats; format: in vivo; conditions: newborn SD rats
Experimental: The present compound was examined for the effect on buthionine sulfoximine (BSO)-induced cataract in rats.
The compound of Example 2 (abbreviated to ETS-GS-Na) 0.1 mmol/10 ml/kg, i.p.
The test was performed according to the method of Maitra et al.
Indrani Maitra, Elena Serbinova et al., α-Lipoic Acid Prevents Buthionine Sulfoximine-induced Cataract Formation in Newborn Rats Free Radical Biology & Medicine, Vol. 18, No. 4, pp.823-829, 1995.
28 to 36-hour old SD rats purchased from SLC Japan (Kabushiki Kaisha) were used for the test.
Cataract was induced by subcutaneously administering 3 mmol/kg of BSO at 8:00 A.M. and 4:00 P.M. for 2 days.
Observation of cataract was performed using a slit lamp microscope after the newborn rats opened their eyes after the BSO administration. The opacity of each of the lenses was assessed and classified into one of the following 0-5 grades.
0: a clear lens without opacity
1: a lens with opacities in part of the equatorial region
2: a lens with opacities along the equatorial region
3: a lens with opacities in part of the cortex
4: a lens with opacities in the whole cortex
5: a lens with opacities advancing up to the central region.
The test compound was intraperitoneally administered 4 and 12 hours after the administration of BSO.

[2] = system: acetaminophen-induced hepatopathy; assay: Effect on acetaminophen-induced hepatopathy in mice; format: in vivo; conditions: male ddy mice
Experimental: The present compound was examined for the effect on acetaminophen-induced hepatopathy in mice.
The compound of Example 2 (abbreviated to ETS-GS-Na) 0.1 mmol/ 10 ml/kg, i.p.
7-week old male ddy mice purchased from SLC Japan (Kabushiki Kaisha) were used for the test following a 24-hour fasting.
Hepatopathy was induced by oral administration of 250 mg/10 ml/kg acetaminophen (dissolved by warming).
24 hours after the oral administration of acetaminophen, blood were sampled for measurement of GOP and GPT activities, indices of hepatopathy. The mice were kept on fasting for 48 hours until the blood sampling was made.
The test compound was intraperitoneally injected 30 min before the administration of acetaminophen.

[3] = 0.1 mmol/10 ml/kg i.p. 30 min before acetaminophen 250 mg/kg p.o., blood 24 hours after acetaminophen

| Molecule | Amount of MDA (rat brain homogenate; 3 × 10^−5M) [µM] | Rate of Suppression (rat brain homogenate; 3 × 10^−5M) | Amount of MDA (rat brain homogenate; 3 × 10^−6M) [µM] | Rate of Suppression (rat brain homogenate; 3 × 10^−6M) | Amount of MDA (rat brain homogenate; 10^−5M) [µM] | Rate of Suppression (rat brain homogenate; 10^−5M) | Amount of MDA (rat brain homogenate; 10^−6M) [µM] | Rate of Suppression (rat brain homogenate; 10^−6M) | suppression of BSO-induced cataract ([1]; 0.1 mmol/10 ml/kg i.p.) | average grade of lens opacity ([1]; BSO 3 mmol/kg s.c., 0.1 mmol/10 ml/kg i.p. 4 and 12 hours after BSO, slit lamp, grades 0-5) | effect on acetaminophen-induced hepatopathy ([2]; 0.1 mmol/10 ml/kg i.p.) | blood GOT activity [2, 3] [IU/1] | blood GPT activity [2, 3] [IU/1] |
| --- | --- | --- | --- | --- | --- | --- | --- | --- | --- | --- | --- | --- | --- |
| Cc1c(C)c2c(c(C)c1OC(=O)C(CC(=O)O)SC[C@H](NC(=O)CC[C@H](N)C(=O)O)C(=O)NCC(=O)O)CCC(C)(CCCC(C)CCCC(C)CCCC(C)C)O2 (stereo partly drawn) [Example 1, S-[2-Carboxy-1-(α-tocopheryl-6-yl-oxycarbonyl)Ethyl]glutathione] | 0.838 ± 0.056 | 93.94 ^*3% | 4.079 ± 0.126 | 40.17 ^*3% | 1.338 ± 0.039 | 85.64 ^*3% | 5.208 ± 0.083 | 21.43 ^*2% |  |  |  |  |  |
| Cc1c(C)c2c(c(C)c1OC(=O)C(CC(=O)NCCS(=O)(=O)O)SC[C@H](NC(=O)CC[C@H](N)C(=O)O)C(=O)NCC(=O)O)CCC(C)(CCCC(C)CCCC(C)CCCC(C)C)O2 (stereo partly drawn) [Example 2, S-[2-(N-Carbonylaminoethylsulfonic acid)-1-(α-tocopheryl-6-yl-oxycarbonyl)ethyl]glutathione] |  |  |  |  |  |  |  |  | complete suppression | 0 | significant suppressing effect | 336±89 | 47±22 |
| S-[2-(N-Carbonylaminoethylsulfonic acid)-1-(α-tocopheryl-6-yl-oxycarbonyl)ethyl]cysteine [Example 5] | 0.980 ± 0.249 | 91.59 ^*3% | 4.890 ± 0.052 | 26.71 ^*2% | 4.090 ± 0.348 | 39.98 ^*2% | 5.022 ± 0.060 | 24.52 ^*2% |  |  |  |  |  |
